Measurements reported in ChEMBL document CHEMBL5465560, “Selectivity Literature for EUbOPEN Chemogenomic Library” (2024).

Assays:
[1] = target: T1, Dual specificity protein kinase TTK (Homo sapiens) (UniProt P33981); assay: Selectivity interaction (Kinase panel (literature)) EUB0001199aCl TTK; settings: at 1 µM
T1 sequence (whole entry): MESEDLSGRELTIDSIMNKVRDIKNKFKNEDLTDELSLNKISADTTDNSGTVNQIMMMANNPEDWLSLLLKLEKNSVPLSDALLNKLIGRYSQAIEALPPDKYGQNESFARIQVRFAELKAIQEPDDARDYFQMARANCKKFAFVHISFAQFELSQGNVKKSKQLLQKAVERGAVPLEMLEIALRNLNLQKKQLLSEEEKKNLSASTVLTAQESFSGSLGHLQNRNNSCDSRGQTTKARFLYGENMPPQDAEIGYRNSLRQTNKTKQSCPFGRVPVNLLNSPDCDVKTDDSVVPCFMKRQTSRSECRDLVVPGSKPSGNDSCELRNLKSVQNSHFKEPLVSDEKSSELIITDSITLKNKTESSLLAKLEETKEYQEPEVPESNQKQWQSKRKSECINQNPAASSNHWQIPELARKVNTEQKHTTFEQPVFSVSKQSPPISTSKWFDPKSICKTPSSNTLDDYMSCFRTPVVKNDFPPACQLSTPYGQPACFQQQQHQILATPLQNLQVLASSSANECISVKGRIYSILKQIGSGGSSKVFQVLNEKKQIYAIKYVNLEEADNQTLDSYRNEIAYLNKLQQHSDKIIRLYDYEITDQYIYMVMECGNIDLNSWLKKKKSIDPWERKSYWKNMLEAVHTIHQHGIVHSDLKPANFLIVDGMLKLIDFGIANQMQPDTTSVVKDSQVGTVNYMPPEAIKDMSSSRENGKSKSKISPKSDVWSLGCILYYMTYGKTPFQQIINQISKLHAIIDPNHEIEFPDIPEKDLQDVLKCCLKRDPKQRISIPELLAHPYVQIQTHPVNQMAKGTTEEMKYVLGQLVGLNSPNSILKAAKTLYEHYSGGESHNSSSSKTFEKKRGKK

[2] = target: Glycogen synthase kinase-3 beta (Homo sapiens, UniProt P49841); assay: Selectivity interaction (Kinase panel (literature)) EUB0001199aCl GSK3B; settings: at 1 µM
Glycogen synthase kinase-3 beta, sequence (P49841 whole entry, looked up): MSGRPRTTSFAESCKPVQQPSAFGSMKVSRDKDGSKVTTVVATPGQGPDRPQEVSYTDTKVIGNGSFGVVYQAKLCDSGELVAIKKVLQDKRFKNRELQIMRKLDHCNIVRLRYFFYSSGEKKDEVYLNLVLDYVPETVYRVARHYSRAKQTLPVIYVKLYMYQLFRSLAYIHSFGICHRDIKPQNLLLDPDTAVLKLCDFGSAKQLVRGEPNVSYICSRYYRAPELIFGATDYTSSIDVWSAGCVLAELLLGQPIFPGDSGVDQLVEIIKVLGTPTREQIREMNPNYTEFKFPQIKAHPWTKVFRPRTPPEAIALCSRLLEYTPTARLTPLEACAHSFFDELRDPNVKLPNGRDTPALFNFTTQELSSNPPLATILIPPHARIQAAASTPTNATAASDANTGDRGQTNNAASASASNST

[3] = target: Macrophage-stimulating protein receptor (Homo sapiens, UniProt Q04912); assay: Selectivity interaction (KinomeScan (DiscoverX)) EUB0000666a MST1R; settings: at 10 µM
Macrophage-stimulating protein receptor, sequence (Q04912 25-304 limits assumed): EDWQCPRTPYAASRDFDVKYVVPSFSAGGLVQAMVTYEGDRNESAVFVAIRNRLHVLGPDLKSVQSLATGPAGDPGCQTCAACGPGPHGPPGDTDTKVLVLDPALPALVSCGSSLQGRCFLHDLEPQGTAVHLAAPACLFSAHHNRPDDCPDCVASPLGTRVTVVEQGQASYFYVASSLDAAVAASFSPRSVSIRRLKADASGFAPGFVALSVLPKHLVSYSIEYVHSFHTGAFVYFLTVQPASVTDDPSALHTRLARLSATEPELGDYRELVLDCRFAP
Macrophage-stimulating protein receptor, sequence (Q04912 310-1400 limits assumed): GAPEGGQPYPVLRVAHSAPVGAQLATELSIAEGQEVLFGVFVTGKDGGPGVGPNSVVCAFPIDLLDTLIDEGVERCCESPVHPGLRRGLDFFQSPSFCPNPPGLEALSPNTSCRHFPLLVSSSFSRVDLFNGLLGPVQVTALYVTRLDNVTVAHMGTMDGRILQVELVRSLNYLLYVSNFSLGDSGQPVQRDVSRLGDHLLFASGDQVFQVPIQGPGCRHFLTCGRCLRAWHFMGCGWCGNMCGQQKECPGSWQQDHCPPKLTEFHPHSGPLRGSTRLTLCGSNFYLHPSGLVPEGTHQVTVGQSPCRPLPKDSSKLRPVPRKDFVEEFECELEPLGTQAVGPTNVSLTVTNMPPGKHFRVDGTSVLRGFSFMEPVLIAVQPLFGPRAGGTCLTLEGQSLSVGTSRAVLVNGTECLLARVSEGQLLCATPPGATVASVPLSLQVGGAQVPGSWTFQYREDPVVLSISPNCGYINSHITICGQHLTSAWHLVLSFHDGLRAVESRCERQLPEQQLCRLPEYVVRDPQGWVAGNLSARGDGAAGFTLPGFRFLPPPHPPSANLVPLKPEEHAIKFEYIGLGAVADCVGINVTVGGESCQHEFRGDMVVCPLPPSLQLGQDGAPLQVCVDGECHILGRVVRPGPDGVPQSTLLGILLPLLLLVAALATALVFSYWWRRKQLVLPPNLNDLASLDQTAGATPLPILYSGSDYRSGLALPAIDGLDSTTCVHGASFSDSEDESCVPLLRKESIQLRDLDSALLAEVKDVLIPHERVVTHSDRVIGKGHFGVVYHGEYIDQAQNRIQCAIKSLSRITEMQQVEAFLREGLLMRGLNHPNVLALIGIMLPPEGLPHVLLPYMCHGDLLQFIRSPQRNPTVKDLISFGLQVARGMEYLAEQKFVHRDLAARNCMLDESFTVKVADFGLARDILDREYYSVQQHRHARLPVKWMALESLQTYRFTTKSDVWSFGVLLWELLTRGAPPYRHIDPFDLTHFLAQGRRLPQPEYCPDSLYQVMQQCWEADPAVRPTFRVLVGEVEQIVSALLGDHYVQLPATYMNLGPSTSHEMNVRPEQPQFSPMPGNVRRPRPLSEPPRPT

[4] = target: T2, Serine/threonine-protein kinase Nek8 (Homo sapiens) (UniProt Q86SG6); assay: Selectivity interaction (Kinase panel (KiNativ target engagement assay in Jurkat cells)) EUB0001635a NEK8; assay type: cell-based; settings: at 1 µM
T2 sequence (whole entry): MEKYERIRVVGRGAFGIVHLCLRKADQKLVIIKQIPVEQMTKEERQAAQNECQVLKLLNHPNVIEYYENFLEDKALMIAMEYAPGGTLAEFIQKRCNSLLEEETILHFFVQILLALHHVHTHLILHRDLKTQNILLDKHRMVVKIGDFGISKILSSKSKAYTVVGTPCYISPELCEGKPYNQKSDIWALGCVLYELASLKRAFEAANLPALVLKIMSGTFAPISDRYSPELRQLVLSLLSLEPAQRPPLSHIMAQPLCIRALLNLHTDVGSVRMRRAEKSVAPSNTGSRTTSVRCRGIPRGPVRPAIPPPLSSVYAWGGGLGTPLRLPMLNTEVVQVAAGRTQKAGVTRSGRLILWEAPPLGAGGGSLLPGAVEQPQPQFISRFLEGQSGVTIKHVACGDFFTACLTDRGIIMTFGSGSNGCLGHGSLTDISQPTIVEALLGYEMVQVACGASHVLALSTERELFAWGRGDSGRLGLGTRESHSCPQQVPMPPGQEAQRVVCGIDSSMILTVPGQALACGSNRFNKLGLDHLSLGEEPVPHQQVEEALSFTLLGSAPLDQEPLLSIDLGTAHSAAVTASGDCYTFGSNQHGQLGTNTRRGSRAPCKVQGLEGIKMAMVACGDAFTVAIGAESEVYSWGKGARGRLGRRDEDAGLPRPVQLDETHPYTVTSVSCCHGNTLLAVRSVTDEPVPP

[5] = target: Protein arginine N-methyltransferase 8 (Homo sapiens, UniProt Q9NR22); assay: Selectivity interaction (Transferase panel (protein, RNA, and DNA methyltransferases. and EP300 (acetyltransferase))) EUB0000270b PRMT8
Protein arginine N-methyltransferase 8, sequence (Q9NR22 2-394 limits assumed): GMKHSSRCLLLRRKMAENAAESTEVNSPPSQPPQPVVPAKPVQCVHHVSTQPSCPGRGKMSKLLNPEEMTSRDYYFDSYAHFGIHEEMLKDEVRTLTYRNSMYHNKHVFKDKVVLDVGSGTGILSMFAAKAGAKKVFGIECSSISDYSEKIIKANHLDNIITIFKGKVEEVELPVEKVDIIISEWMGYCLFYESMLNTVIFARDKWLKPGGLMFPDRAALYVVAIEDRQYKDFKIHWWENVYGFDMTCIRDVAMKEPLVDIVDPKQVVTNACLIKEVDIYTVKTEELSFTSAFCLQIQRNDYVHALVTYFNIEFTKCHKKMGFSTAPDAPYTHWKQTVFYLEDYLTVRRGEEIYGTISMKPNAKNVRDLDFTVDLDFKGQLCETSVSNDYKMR

[6] = target: Protein-tyrosine kinase 2-beta (Homo sapiens) (UniProt Q14289); assay: Selectivity interaction (ActivX KiNativ screen (kinase selectivity in THP-1 cell lysates)) EUB0000639a PTK2B; assay type: subcellular; settings: lysate, at 5 µM
[7] = target: Non-receptor tyrosine-protein kinase TYK2 (Homo sapiens, UniProt P29597); assay: Selectivity interaction (ActivX KiNativ screen (kinase selectivity in THP-1 cell lysates)) EUB0000639a TYK2; assay type: subcellular; settings: lysate, at 1 µM
[8] = target: T3, Mitogen-activated protein kinase 15 (Homo sapiens) (UniProt Q8TD08); assay: Selectivity interaction (KinomeScan (DiscoverX)) EUB0000595a MAPK15; settings: at 10 µM
T3 sequence (whole entry): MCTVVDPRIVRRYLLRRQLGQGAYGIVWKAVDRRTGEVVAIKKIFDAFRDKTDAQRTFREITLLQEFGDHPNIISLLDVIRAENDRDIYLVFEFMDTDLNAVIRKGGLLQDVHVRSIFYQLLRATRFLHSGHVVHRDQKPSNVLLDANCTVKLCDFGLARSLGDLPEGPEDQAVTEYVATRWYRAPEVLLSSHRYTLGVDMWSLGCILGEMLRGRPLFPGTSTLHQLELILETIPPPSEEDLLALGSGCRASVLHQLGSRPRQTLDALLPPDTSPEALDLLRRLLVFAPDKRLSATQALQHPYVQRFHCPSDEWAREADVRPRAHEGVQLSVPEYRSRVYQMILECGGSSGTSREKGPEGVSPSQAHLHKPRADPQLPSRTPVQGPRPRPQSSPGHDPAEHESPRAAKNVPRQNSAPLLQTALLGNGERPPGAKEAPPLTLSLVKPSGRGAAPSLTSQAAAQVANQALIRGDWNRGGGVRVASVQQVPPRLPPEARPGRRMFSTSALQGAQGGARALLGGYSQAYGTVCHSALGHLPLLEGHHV

[9] = target: SRSF protein kinase 2 (Homo sapiens) (UniProt P78362); assay: Selectivity interaction (KinomeScan (DiscoverX)) EUB0000045b SRPK2
SRSF protein kinase 2 (Homo sapiens), sequence (P78362 whole entry, looked up): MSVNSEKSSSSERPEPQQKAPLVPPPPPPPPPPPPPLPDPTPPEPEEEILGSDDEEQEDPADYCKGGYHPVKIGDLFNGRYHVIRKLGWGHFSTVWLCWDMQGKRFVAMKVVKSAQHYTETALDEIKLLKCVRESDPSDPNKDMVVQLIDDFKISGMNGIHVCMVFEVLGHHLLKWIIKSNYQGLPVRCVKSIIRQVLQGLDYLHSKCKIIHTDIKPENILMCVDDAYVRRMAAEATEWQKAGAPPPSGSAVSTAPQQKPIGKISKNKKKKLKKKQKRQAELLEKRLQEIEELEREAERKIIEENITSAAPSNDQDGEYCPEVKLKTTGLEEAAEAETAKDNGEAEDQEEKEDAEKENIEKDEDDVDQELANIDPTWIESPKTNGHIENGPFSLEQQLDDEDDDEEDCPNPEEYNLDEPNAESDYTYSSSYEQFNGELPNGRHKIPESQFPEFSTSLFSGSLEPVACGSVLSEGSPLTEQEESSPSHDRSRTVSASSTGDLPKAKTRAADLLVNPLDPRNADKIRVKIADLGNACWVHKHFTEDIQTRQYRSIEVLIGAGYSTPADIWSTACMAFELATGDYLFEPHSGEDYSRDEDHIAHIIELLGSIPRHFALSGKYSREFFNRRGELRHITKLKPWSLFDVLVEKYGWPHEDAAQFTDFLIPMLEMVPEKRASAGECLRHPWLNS

[10] = target: Serine/threonine-protein kinase PAK 1 (Homo sapiens) (UniProt Q13153); assay: Selectivity interaction (KinomeScan (DiscoverX)) EUB0000655a PAK1; settings: at 10 µM
Serine/threonine-protein kinase PAK 1 (Homo sapiens), sequence (Q13153 whole entry): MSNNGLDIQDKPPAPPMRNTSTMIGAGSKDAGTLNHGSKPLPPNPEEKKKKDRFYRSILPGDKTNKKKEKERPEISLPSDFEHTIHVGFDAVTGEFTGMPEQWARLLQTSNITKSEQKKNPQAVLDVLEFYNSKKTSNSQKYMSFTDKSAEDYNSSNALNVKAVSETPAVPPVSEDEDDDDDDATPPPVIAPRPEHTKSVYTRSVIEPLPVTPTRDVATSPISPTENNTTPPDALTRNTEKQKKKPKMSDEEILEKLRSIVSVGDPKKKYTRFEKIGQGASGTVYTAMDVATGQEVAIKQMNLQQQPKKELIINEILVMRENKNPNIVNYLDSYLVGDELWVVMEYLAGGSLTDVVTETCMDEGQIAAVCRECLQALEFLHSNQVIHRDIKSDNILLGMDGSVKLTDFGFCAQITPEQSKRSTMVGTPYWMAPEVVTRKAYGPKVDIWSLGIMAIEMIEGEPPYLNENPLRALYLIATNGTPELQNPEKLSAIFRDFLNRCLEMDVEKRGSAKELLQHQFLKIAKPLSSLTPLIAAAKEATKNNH

[11] = target: T4, Tyrosine-protein kinase JAK2 (Homo sapiens, UniProt O60674); assay: Selectivity interaction (KinomeScan (DiscoverX)) EUB0000695a JAK2; settings: at 100 nM
T4 sequence (O60674 whole entry): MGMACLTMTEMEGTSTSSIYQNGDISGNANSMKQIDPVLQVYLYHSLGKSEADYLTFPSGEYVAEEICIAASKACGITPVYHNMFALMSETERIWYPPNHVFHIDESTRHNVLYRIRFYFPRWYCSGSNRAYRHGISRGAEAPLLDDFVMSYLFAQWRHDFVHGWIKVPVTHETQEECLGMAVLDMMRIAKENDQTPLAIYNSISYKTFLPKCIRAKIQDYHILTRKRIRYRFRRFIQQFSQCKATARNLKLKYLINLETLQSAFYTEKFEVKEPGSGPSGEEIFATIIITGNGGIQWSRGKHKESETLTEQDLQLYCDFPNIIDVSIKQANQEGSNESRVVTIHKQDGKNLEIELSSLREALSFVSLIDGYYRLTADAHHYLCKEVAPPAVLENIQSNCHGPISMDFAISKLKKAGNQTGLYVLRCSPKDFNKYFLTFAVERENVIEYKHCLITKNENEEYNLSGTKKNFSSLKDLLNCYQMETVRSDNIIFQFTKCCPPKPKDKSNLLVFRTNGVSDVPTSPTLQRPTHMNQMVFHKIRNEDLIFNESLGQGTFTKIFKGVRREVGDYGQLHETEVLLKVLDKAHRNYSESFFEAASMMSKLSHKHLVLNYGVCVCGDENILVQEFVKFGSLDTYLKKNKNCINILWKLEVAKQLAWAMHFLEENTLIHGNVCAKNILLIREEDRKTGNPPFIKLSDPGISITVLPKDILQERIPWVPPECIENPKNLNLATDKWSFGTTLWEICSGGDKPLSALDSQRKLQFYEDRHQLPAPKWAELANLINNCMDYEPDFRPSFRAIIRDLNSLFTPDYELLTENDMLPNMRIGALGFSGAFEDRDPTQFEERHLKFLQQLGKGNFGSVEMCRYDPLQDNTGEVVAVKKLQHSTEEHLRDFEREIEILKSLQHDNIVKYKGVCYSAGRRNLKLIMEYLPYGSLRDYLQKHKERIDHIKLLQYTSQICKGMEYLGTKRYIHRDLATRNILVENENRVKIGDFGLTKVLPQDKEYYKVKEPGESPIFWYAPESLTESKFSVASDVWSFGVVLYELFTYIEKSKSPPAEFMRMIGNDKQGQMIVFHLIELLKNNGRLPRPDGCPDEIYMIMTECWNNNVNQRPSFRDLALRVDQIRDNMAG

[12] = target: T4, Tyrosine-protein kinase JAK2; assay: (§1) Selectivity interaction (Kinase panel (Z-LYTE Assay)) EUB0001632a JAK2; settings: at 10 µM
[13] = test system: Tyrosine-protein kinase JAK2 (Homo sapiens), O60674 [V617F]; assay: as §1; settings: at 10 µM
Tyrosine-protein kinase JAK2 (Homo sapiens), O60674 [V617F], sequence (O60674 whole entry V617F): as the sequence (O60674 whole entry) above, with V617F counted along it

In the case of `CN1Cc2nccc(-c3cn(C)nc3-c3ccc(F)cc3)c2C1=O`, the % of inhibition [1] was -3% and the % of inhibition [2] was 1%.
For `O=C(NOC[C@H](O)CO)c1ccc(F)c(F)c1Nc1ccc(I)cc1F`, the % of control [3] was 78%.
With `C=CC(=O)Nc1ccc(C(=O)Nc2[nH]nc3c2CN(C(=O)N[C@H](CN(C)C)c2ccccc2)C3(C)C)cc1` the % of engagement [4] was -10.5%.
In the case of `Cc1cc(CN)cc(C)c1-c1ncn(C)c1-c1cncn1C`, the % activity ([5]; at 1 µM) was greater than 90% and the % activity ([5]; at 10 µM) was greater than 80%.
Compound `CC[C@@H]1[C@H](F)C(=O)N[C@@H]1COc1nccc2cc(C(N)=O)c(OC)cc12` [ZIMLOVISERTIB] has a % of inhibition [6] of 11.6% and a % of inhibition [7] of -8.7%.
`COCC(=O)NC/C=C/c1ccc2ncnc(Nc3ccc(Oc4ccc(C)nc4)c(C)c3)c2c1` [CP-724714] was tested, and the % of control [8] was 100%.
For `C=CC(=O)Nc1cc(-n2c(=O)ccc3cnc4ccc(-c5ccc(NS(C)(=O)=O)cc5)cc4c32)ccc1C`, the % of control ([9]; at 1 µM) was 100% and the % of control ([9]; at 10 µM) was 81%.
For `CN(C)CCOc1ccc(-c2nc(-c3ccncc3)c(-c3ccc4c(c3)CC/C4=N\O)[nH]2)cc1`, the % of control [10] was 87%.
Compound `Cc1cc(F)c(C(=O)Nc2cccc(-c3nncn3C(C)C)n2)cc1-n1cnc(C2CC2)c1` has a % of control [11] of 85%.
`Cn1cc(-n2cnc3c(NCc4nc5cc(Cl)c(Cl)cc5[nH]4)nc(N4CCOCC4)nc32)cn1` gave a % of control [12] of -3.18% and a % of control [13] of -2.15%.
